Assay [1] relates to spleen cells of immunized mice. Kind of assay: Splenocyte proliferation ([3H]thymidine incorporation) after in vitro restimulation with β-Gal. The assay is classed as in vivo, Balb/c mice. The following applies: i.n., 10 μg glycolipid, restimulation with β-Gal for 4 days. The method, then: (§1) Co-administration of β-Gal with 10 μg glycolipids 1, 5 and 6 induced a strong cellular immune responses against the β-Gal antigen in Balb/c mice. Balb/c mice were immunized by the i.n. or s.c. route with β-Gal alone or together with glycolipids 1, 5 and 6 three times at 2-wk intervals. 10 days after the final immunization, the immunized mice were sacrificed. Splenocytes of mice immunized by the i.n. (A) and s.c. (B) route were collected and cultured with different concentrations of the β-Gal-Protein for 4 days. […] Curves represent [^3H]thymidine incorporation (counts per minute, cpm) and Stimulation index (SI) in each group. Each group consists of five mice. Data are representative of three separate experiments.
as §1, with “with 20 up to 30” for “with 10”, “glycolipids” for “glycolipids 1,”, “represent [3H]thymidine incorpoaration” for “represent [^3H]thymidine incorporation”
Experimental protocol: Spleens were removed and pooled for analysis of cellular immune responses. Cells were grown in RPMI 1640 supplemented with 10% fetal calf serum, 100 U/ml of penicillin, 50 μg/ml of streptomycin, 5×10^−5 M 2-mercaptoethanol and 1 mM L-glutamine (GIBCO BRL, Karlsruhe, Germany) and maintained at 37° C. in a humidified 5% CO2 atmosphere. Spleen cell suspensions were adjusted to 5×10^6 cells/ml in complete medium, cells were seeded with 100 μl per well in a flat-bottomed 96-well microtiter plate (Nunc) and plates were incubated for 4 days. Unstimulated spleen cells were incubated in the presence of different concentrations of the new adjuvants to analyze the in vitro stimulation capacity of glycolipids 1, 5 or 6, respectively. T cellmediated immune responses were investigated at day 38 by measuring the proliferation of cells recovered from spleens after in vitro restimulation with β-Gal. Said spleen cells were obtained from vaccinated mice—said mice where immunized as described in Example 2—and incubated in the presence of different concentrations of the soluble β-Gal antigen. Each concentration was tested in triplicates. During the final 18 h of culture, 1 μCi of [^3H]thymidine (Amersham International, Freiburg, Germany) was added to each well. Cells were then harvested on paper filters (Filtermat A; Wallac, Freiburg, Germany) by using a cell harvester (Inotech, Wohlen, Switzerland), and the amount of incorporated [^3H]thymidine into the DNA of proliferating cells was determined by a β-scintillation counter (Wallac 1450, Micro-Trilux). The results are expressed as the arithmetic mean of [^3H]thymidine uptake in cpm.

The subject of assay [2] is β-Gal-specific systemic IgG. The assay can be described thus: β-Gal-specific serum IgG ELISA after i.n. or s.c. immunisation with β-Gal plus glycolipid adjuvant. To be noted: day 38. The assay is classed as in vivo, Balb/c mice. The procedure: Co-administration of β-Gal with 10 μg glycolipids 1, 5 and 6 induced β-Gal-specific systemic IgG responses in Balb/c mice. Balb/c mice were immunized by the i.n. or s.c. route with β-Gal alone or together with glycolipids 1, 5 and 6 three times at 2-wk intervals. 10 days after the final immunization, the immunized mice were sacrified. The levels of β-Gal-specific systemic IgG were determined in Sera of mice immunized by the i.n. (A) and s.c. (B) route. […] The parenteral administration of with β-Gal co-administered with glycolipids 1, 5 and 6 doubled the β-Galactosidase-specific IgG titer (>500000) in comparison to animals which were immunized with β-Gal alone. Bars represent mean Ab titer or amount±SE in each group. […]
Balb/c mice were immunized by the i.n. or s.c. route with β-Gal alone or together with glycolipids 5 and 6 three times at 2-wk intervals. […] The levels of β-Gal-specific systemic IgG were determined in Sera of mice immunized by the i.n. (A) and s.c. (B) route. […]
Experimental protocol: six-eight weeks-old female BALB/c (H-2d) mice were purchased from Harlan Winkelmann GmbH (Borchen, Germany) and treated in accordance with local and European Community guidelines. […] Endpoint titers were expressed as the reciprocal log 2 of the last dilution, which gave an optical density at 405 nm of 0.1 units above the values of the negative controls after 15 to 30 min of incubation.
(In general: ELISA stands for enzyme-linked immunosorbent assay.)

Bounds are passed on as bounds.

Experimental findings from patent US8211463B2, “Use of glycolipids as adjuvants” (Helmholtz-Zentrum Fuer Infektionsforschung GmbH, priority 2006, dated 2012) are described below.

β-Gal: in assay [1], the “Stimulation index (SI), [3H]thymidine incorporation of spleen cells” value is given as “no effect”. Moreover, the “β-Galactosidase-specific IgG titer in serum” value is < 1/10000 and very low antibody titers in assay [2] (10 μg glycolipid + 30 μg β-Gal, three immunisations); < 1/10000 in assay [2] (20 or 30 μg glycolipid + 30 μg β-Gal).
